According to article PMC5974779, “Prediction of Drug-Induced Hepatotoxicity Using Long-Term Stable Primary Hepatic 3D Spheroid Cultures in Chemically Defined Conditions” (Toxicological Sciences, 2018):
Where two headings read alike, the source gives them in different places.

Tests used:
[1] = test system: primary human hepatocytes (PHH) 3D spheroids
clinical DILI in man = conditions: cited from earlier work; for Clinical DILI classification (Figure 5): structural analogue pairs, 2008 and others
[2] = therapeutic total cmax; ref PMID; cited from earlier work
[3] = ref DrugBank and Prescribers' Digital Reference database; cited from earlier work
[4] = test system: PHH spheroids (hanging-drop); conditions: cited from earlier work; for hepatotoxicity classification in hanging-drop PHH spheroids: 100× cmax, 2 weeks, ref Proctor et al., 2017
PHH 2D sandwich cultures = conditions: cited from earlier work
[5] = PHH hanging-drop spheroids, 100x Cmax, ref Proctor 2017
[6] = DILI classification score, ref Suzuki et al. (2010)
[7] = FDA drug labeling DILI score, ref Chen et al., 2011
[8] = clinical DILI classification in man (POS/NEG)
[9] = clinical DILI classification used in this study, Supplementary Table 2, ref Chen et al., 2011, Guo et al., 2005, O'Brien et al., 2006, Sakatis et al., 2012, Suzuki et al., 2010, Xu et al., 2008
[10] = clinical DILI classification, Supplementary Table 1, ref Chen et al., 2011, Guo et al., 2005, O'Brien et al., 2006, Sakatis et al., 2012, Suzuki et al., 2010, Xu et al., 2008
[11] = reported pattern of liver damage, Supplementary Table 2, ref literature
[12] = ref Chen et al., 2011, Xu et al.
[13] = PHH 2D sandwich cultures, 100x Cmax, ref Xu 2008
[14] = clinical DILI classification, ref Xu et al. (2008)
[15] = clinical hepatotoxicity classification, ref O'Brien et al. (2003)

| Compound | Chemically defined spheroids (this study) 20x [1] | Classified as (clinical DILI in man; in vivo) | Clinical DILI class (panel heading of Figure 4) (clinical DILI in man; in vivo) | DILI in vivo (clinical DILI in man; in vivo) | FDA (0-8) (clinical DILI in man; in vivo) | Type of DILI (clinical DILI in man; in vivo) | Cmax [2] [nM] | Extent of hepatic metabolism [3] | Hanging-drop spheroids (Proctor 2017) 100x [4, 5] | FDA (0-8) (clinical DILI in man; [7]) | DILI in vivo (clinical DILI in man; [8]) | Classified as (clinical DILI in man; [9]) | DILI in vivo (clinical DILI in man; [10]) | Type of DILI (clinical DILI in man; [11]) | Xu et al. (2008) (clinical DILI in man; in vivo) | Sakatis et al. (2012) (clinical DILI in man; in vivo) | 2Dsw (Xu 2008) 100x (PHH 2D sandwich cultures; [13]) | Xu et al. (2008) (clinical DILI in man; [14]) | other results |
| --- | --- | --- | --- | --- | --- | --- | --- | --- | --- | --- | --- | --- | --- | --- | --- | --- | --- | --- | --- |
| CC(C(=O)O)c1ccc2oc(-c3ccc(Cl)cc3)nc2c1 (centres unmarked) [Benoxaprofen] | Negative | POS | Severe DILI | POS | Withdrawn | Hepatocellular injury | 33100 | Moderate | Negative |  |  |  |  |  |  |  |  |  | FDA (Severity) (clinical DILI in man; in vivo): most DILI concern; Suzuki et al. (2010) (clinical DILI in man; in vivo): 3 |
| COc1ccccc1Oc1c(NS(=O)(=O)c2ccc(C(C)(C)C)cc2)nc(-c2ncccn2)nc1OCCO [Bosentan] | Positive |  |  |  |  |  |  | Extensive | Positive | 7 | POS | POS | POS | Hepatocellular injury or Mixed hepatitis |  |  |  |  | hepatotoxicity evaluation in CD-spheroids [1]: clearly detected bosentan-induced liver injury; Suzuki et al. (2010) (clinical DILI in man; [6]): 1; FDA (Severity) (clinical DILI in man; FDA drug labeling DILI concern, ref Chen et al., 2011): most DILI concern; Clinical DILI classification (Figure 5) (clinical DILI in man; [12]): DILI positive |
| CN(C)CCC(c1ccc(Cl)cc1)c1ccccn1 (centres unmarked) [Chlorpheniramine] |  | NEG | DILI negative | NEG | 0 | Non-hepatotoxic |  | Extensive | Negative |  |  |  |  |  | Positive |  |  |  |  |
| CN(C)CCCN1c2ccccc2Sc2ccc(Cl)cc21 [Chlorpromazine] | Positive | POS | High DILI concern | POS | 2 | Cholestatic injury or Mixed hepatitis | 840 | Extensive | Positive |  |  |  |  |  | Positive | Hepatotoxic | Positive |  | Guo et al. (2005) (clinical DILI in man; in vivo): 3; O'Brien et al. (2003) (clinical DILI in man; in vivo): Moderately; Suzuki et al. (2010) (clinical DILI in man; in vivo): 2 |
| O=C1CN(/N=C/c2ccc(-c3ccc([N+](=O)[O-])cc3)o2)C(O)=N1 [Dantrolene] | Positive | POS | Severe DILI | POS | 8 | Hepatocellular injury or Mixed hepatitis | 3690 | Extensive | Negative |  |  |  |  |  | Positive | Hepatotoxic | Positive |  | hepatotoxicity evaluation in CD-spheroids [1]: revealed the DILI liability; FDA (Severity) (clinical DILI in man; in vivo): most DILI concern; Guo et al. (2005) (clinical DILI in man; in vivo): 3; O'Brien et al. (2003) (clinical DILI in man; in vivo): Severely; hepatotoxicity classification in hanging-drop PHH spheroids [4]: previously missed |
| CCOC(=O)c1ncn2c1CN(C)C(=O)c1cc(F)ccc1-2 [Flumazenil] | Negative |  |  |  |  |  | 1120 | Extensive | Negative | 0 | NEG | NEG | NEG | Non-hepatotoxic |  |  | Negative | Negative | O'Brien et al. (2003) (clinical DILI in man; [15]): Non-toxic |
| CN(Cc1cnc2nc(N)nc(N)c2n1)c1ccc(C(=O)N[C@@H](CCC(=O)O)C(=O)O)cc1 [Methotrexate] | Positive |  |  |  |  |  |  | Moderate | Negative | 3 | POS | POS | POS | Hepatocellular injury |  |  | Negative | Positive | hepatotoxicity evaluation in CD-spheroids [1]: revealed the DILI liability; hepatotoxicity evaluation in CD-spheroids ([1]; human, 14 days): clearly detected already at 1× cmax exposure levels; Guo et al. (2005) (clinical DILI in man; DILI classification score, ref Guo et al. (2005)): 3; Suzuki et al. (2010) (clinical DILI in man; [6]): 1; O'Brien et al. (2003) (clinical DILI in man; [15]): Severely; Sakatis et al. (2012) (clinical DILI in man; clinical hepatotoxicity classification, ref Sakatis et al. (2012)): Hepatotoxic; hepatotoxicity classification in hanging-drop PHH spheroids [4]: previously missed |
| CC(C)(C)NCC(O)COc1cccc2c1CC(O)C(O)C2 (centres unmarked) [Nadolol] | Negative |  |  |  |  |  |  | Minimal | Negative | 3 | NEG | NEG | NEG | Non-hepatotoxic |  |  | Negative | Negative |  |
| O=C1CN(/N=C/c2ccc([N+](=O)[O-])o2)C(=O)N1 [Nitrofurantoin] |  | POS | Severe DILI | POS | 8 | Hepatocellular injury or Autoimmune hepatitis | 21000 | Minimal | Positive |  |  |  |  |  |  | Hepatotoxic |  |  | FDA (Severity) (clinical DILI in man; in vivo): most DILI concern; Guo et al. (2005) (clinical DILI in man; in vivo): 3; O'Brien et al. (2003) (clinical DILI in man; in vivo): Severely; Suzuki et al. (2010) (clinical DILI in man; in vivo): 2; association with idiopathic autoimmune hepatitis (clinical DILI in man; in vivo): associated with cases of idiopathic autoimmune hepatitis |
| Cc1ccccc1C(OCCN(C)C)c1ccccc1 (centres unmarked) [Orphenadrine] |  | NEG | DILI negative | NEG | 0 | Non-hepatotoxic | 490 | Extensive | Negative |  |  |  |  |  | Negative | non-hepatotixic | Negative |  |  |
| CCN(CC)CC#CCOC(=O)C(O)(c1ccccc1)C1CCCCC1 (centres unmarked) [Oxybutynin] | Negative | NEG | DILI negative | NEG | 0 | Non-hepatotoxic | 20 |  |  |  |  |  |  |  | Negative | non-hepatotixic |  |  | 2Dsw (Xu 2008) 100x (PHH 2D sandwich cultures): Negative; Hanging-drop spheroids (Proctor 2017) 100x [4]: Negative |
| C#CCN(C)Cc1ccccc1 [Pargyline] | Negative |  |  |  |  |  | 820 | Moderate | Negative |  | NEG | NEG | NEG | Non-hepatotoxic |  |  |  |  |  |
| CN(CCOc1ccc(CC2SC(=O)NC2=O)cc1)c1ccccn1 (centres unmarked) [Rosiglitazone] |  |  |  |  |  |  | 950 | Extensive | Positive | 3 | NEG | NEG | NEG | Non-hepatotoxic |  |  | Negative | Negative | O'Brien et al. (2003) (clinical DILI in man; [15]): Non-toxic; Clinical DILI classification (Figure 5) (clinical DILI in man; [12]): DILI negative |
